Data as given in patent publication US10563272B2, “Compositions comprising Metarhizium fungi and use thereof as a pesticide” (Cotton Research and Development Corporation, priority 2015, dated 2020).

Key:
[1] = system: Creontiades dilutus (green mirids); experiment: Foliar spray trial on Bollgard II cotton, Norwood 2010-11 (Example 7): green mirids; assay type: in vivo; conditions: first spray, three DAT; BC 667/DAT 511 500 mL/ha, fipronil 62.5 mL/ha
Procedure: (§1) The trial was conducted on commercial Bollgard II® cotton crops at Norwood near Moree, NSW from 5 Dec. 2010 to 19 Feb. 2011. The cotton was at the early squaring stage, when it was attractive to green mirids (Khan et al. 2004).
(§2) The study evaluated the efficacy of the following treatments against green mirids, green vegetable bugs and predatory insects: • 1. 500 mL/ha BC 667 spore in oil (1×10^7 spores/ml); • 2. 500 mL/ha DAT 511 spore in oil (1×10^7 spores/ml); • 3. 62.5 mL/ha Fipronil (conventional insecticide); and • 4. Unsprayed (control).
The treatment plots were arranged in a randomized complete block design with four replicates per treatment. Each replicated plot measured 0.5 ha. Foliar application of each treatment was made on 18 Jan. 2011 using a ground spray rig fitted with flat fan nozzles to achieve a droplet size of 80 250 μm. The treatment was applied in the mornings when temperature was between 20° C. and 28° C. […]
Pre-treatment counts of green mirid adults and nymphs, predatory beetles, predatory bugs, predatory lacewings and spiders were made by visual inspection of whole cotton plants. Both adults and nymphs of the beneficial insects were counted. Plants were assessed in randomly selected one-metre lengths of row of each treatment replicate (i.e. four metres per treatment). […] Data are expressed as numbers of individuals of that species counted per metre for each treatment.

predatory lacewings = experiment: Rate trial on conventional cotton refuge crops, Undabri 2012 (Example 12): predatory lacewings; assay type: in vivo, Chrysopa spp., Micromus tasmaniae; conditions: DAT 511 250 mL/ha, 500 mL/ha and 1.0 L/ha; fipronil 62.5 mL/ha
Procedure: (§3) This trial was conducted using commercial conventional cotton refuge crops at Undabri in Goondiwindi (28° 55'S, 150° 31′E) from 14 Feb. to 6 Mar. 2012.
(§4) The efficacy of the following treatments against green mirids, green vegetable bugs and predatory insects was assessed: • 1. 250 mL/ha DAT 511 spore in oil (1×10^7 spores/ml); • 2. 500 mL/ha DAT 511 spore in oil (1×10^7 spores/ml); • 3. 1 L/ha DAT 511 spore in oil (1×10^7 spores/ml); • 4. 62.5 mL/ha fipronil; and • 5. Unsprayed (negative control).
(§5) The plots were arranged in a randomized complete block design with three replicates per treatment. Each replicated plot measured 8 m (8 rows) wide and 250 m long.
(§6) Foliar applications of each treatment were made on 14 Feb. 2012 using a ground spray rig fitted with flat fan nozzles to achieve a droplet size of 200 μm. All insecticide formulations were water miscible. All treatments were applied using a spray volume of 100 L/ha. The untreated (negative control) plot was left unsprayed and the plot treated with synthetic insecticide received two applications similar to, and on the same date as, the plots treated with the fungus.
(§7) For each replicate, visual counts of adults and nymphs of green mirids, green vegetable bugs (GVB), apple dimpling bugs and predatory insects on whole cotton plants were made in a randomly selected 1 m length of row of cotton plants (i.e. 6 m per treatment). […]

predatory beetles [2] = experiment: Foliar spray trial on Bollgard II cotton, Norwood 2010-11 (Example 7): predatory beetles; assay type: in vivo, Coleoptera (Coccinellidae, Melyridae); conditions: fipronil 62.5 mL/ha; for number of predatory beetles per meter: 1st spray, BC 667/DAT 511 0.50 L/ha; for number of predatory beetles per metre: 2nd spray, BC 667/DAT 511 0.5 L/ha
Procedure: as §1, §2
(§8) The treatment plots were arranged in a randomized complete block design with four replicates per treatment. Each replicated plot measured 0.5 ha. Foliar application of each treatment was made on 18 Jan. 2011 using a ground spray rig fitted with flat fan nozzles to achieve a droplet size of 80 250 μm. The treatment was applied in the mornings when temperature was between 20° C. and 28° C. The timing of treatment was based on an economic threshold of 0.5 green mirids per metre, the IPM guideline and recommendation by CottonLogic.
(§9) Pre-treatment counts of green mirid adults and nymphs, predatory beetles, predatory bugs, predatory lacewings and spiders were made by visual inspection of whole cotton plants. Both adults and nymphs of the beneficial insects were counted. Plants were assessed in randomly selected one-metre lengths of row of each treatment replicate (i.e. four metres per treatment). In all, two spray applications of each treatment were made. The first spray was made on 18 Jan. 2011. Post-treatment counts of the first spray application were taken 3, 7 and 14 days after treatment (DAT) (first spray). A second spray application was done on 1 Feb. 2011 when green mirid adults plus nymphs reached the threshold of 0.5 per metre. Post-treatment counts of the second spray application were taken 3, 7, 14, 21 and 28 DAT. Data are expressed as numbers of individuals of that species counted per metre for each treatment.

predatory bugs = experiment: Foliar spray trial on Bollgard II cotton, Norwood 2010-11 (Example 7): predatory bugs; assay type: in vivo, Hemiptera (Nabidae, Lygaeidae, Pentatomidae); conditions: fipronil 62.5 mL/ha; for number of predatory bugs per meter: 1st spray, BC 667/DAT 511 0.50 L/ha; for number of predatory bugs per metre: 2nd spray, BC 667/DAT 511 0.5 L/ha
Procedure: as §1, §2, §8, §9

predatory beetles [3] = experiment: Rate trial on conventional cotton refuge crops, Undabri 2012 (Example 12): predatory beetles; assay type: in vivo, Coleoptera (Coccinellidae, Melyridae); conditions: DAT 511 250 mL/ha, 500 mL/ha and 1.0 L/ha; fipronil 62.5 mL/ha
Procedure: as §3, §4, §5, §6, §7

spiders = experiment: Rate trial on conventional cotton refuge crops, Undabri 2012 (Example 12): spiders; assay type: in vivo, Lycosa spp., Oxyopes spp., Salticidae spp., Araneus spp.; conditions: DAT 511 250 mL/ha, 500 mL/ha and 1.0 L/ha; fipronil 62.5 mL/ha
Procedure: as §3, §4, §5, §6, §7

N#Cc1nn(-c2c(Cl)cc(C(F)(F)F)cc2Cl)c(N)c1[S+]([O-])C(F)(F)F (stereo not drawn) [fipronil]
green mirid mortality [1]: 100%
effect on number of predatory lacewings per metre (predatory lacewings): significantly lower
number of predatory beetles per meter (predatory beetles [2]; 3 DAT): 0.00 ± 0.00 a per meter
number of predatory beetles per meter (predatory beetles [2]; 7 DAT): 0.00 ± 0.00 a per meter
number of predatory beetles per meter (predatory beetles [2]; 14 DAT): 0.00 ± 0.00 a per meter
number of predatory beetles per meter (predatory beetles [2]; pre-spray counts 18 Jan. 2011): 0.67 ± 0.33 a per meter
number of predatory beetles per metre (predatory beetles [2]; 3 DAT): 0.33 ± 0.33a per metre
number of predatory beetles per metre (predatory beetles [2]; 7 DAT): 0.33 ± 0.33a per metre
number of predatory beetles per metre (predatory beetles [2]; 14 DAT): 0.00 ± 0.00a per metre
number of predatory beetles per metre (predatory beetles [2]; 21 DAT): 1.00 ± 0.58a per metre
number of predatory beetles per metre (predatory beetles [2]; 28 DAT): 0.67 ± 0.33a per metre
number of predatory beetles per metre (predatory beetles [2]; pre-spray counts 1 Feb. 2011): 0.00 ± 0.00a per metre
number of predatory bugs per meter (predatory bugs; 3 DAT): 0.33 ± 0.33 a per meter
number of predatory bugs per meter (predatory bugs; 7 DAT): 0.67 ± 0.33 a per meter
number of predatory bugs per meter (predatory bugs; 14 DAT): 1.33 ± 0.33 a per meter
number of predatory bugs per meter (predatory bugs; pre-spray counts 18 Jan. 2011): 0.67 ± 0.33 a per meter
number of predatory bugs per metre (predatory bugs; 3 DAT): 0.33 ± 0.33a per metre
number of predatory bugs per metre (predatory bugs; 7 DAT): 0.33 ± 0.33a per metre
number of predatory bugs per metre (predatory bugs; 14 DAT): 0.67 ± 0.33a per metre
number of predatory bugs per metre (predatory bugs; 21 DAT): 1.00 ± 0.58a per metre
number of predatory bugs per metre (predatory bugs; 28 DAT): 0.67 ± 0.33a per metre
number of predatory bugs per metre (predatory bugs; pre-spray counts 1 Feb. 2011): 1.33 ± 0.33a per metre
effect on number of predatory beetles per metre (predatory beetles [3]): identical
effect on number of spiders per metre (spiders): significantly lower
